Assay results: PMC8963105, “A Novel Modulator of the Renin–Angiotensin System, Benzoylaconitine, Attenuates Hypertension by Targeting ACE/ACE2 in Enhancing Vasodilation and Alleviating Vascular Inflammation” (Frontiers in Pharmacology, 2022)

Key:
p-Akt = p-Akt in aorta of SHRs (Western blot); format: in vivo, rat; conditions: vessel of SHRs, oral 14 days
From the text: (§1) All three MDAs (BAC, BMC, and BHC) were purchased from Nature-Standard Co., Ltd. (Shanghai, China) and their purities were all over 98%. The anti-hypertensive effects of MDAs were studied in both acute and chronic experiments. The 16-week-old SHRs were used in animal experiments, and each group had six rats. In the acute experiment, drug administration was via i.v. injection. For i.v. injection, the animals were randomly assigned into four groups: vehicle (0.1% DMSO–0.9% salt solution, n = 6), low-dose group (0.6 mg kg^−1 body weight, n = 6), medium-dose group (2 mg kg^−1 body weight, n = 6), and high-dose group (6 mg kg^−1 body weight, n = 6). The drug was administered using a venous catheter. In chronic experiments, the animals were randomly assigned into five groups: vehicle (5% Tween 80–0.9% salt solution, n = 6), captopril group (5 mg kg^−1 body weight, n = 6), low-dose group (3 mg kg^−1 body weight, n = 6), medium-dose group (10 mg kg^−1 body weight, n = 6), and high-dose group (30 mg kg^−1 body weight, n = 6). Oral administration with drug or 5% Tween 80–0.9% salt solution was carried out once a day, and continued for 14 days. […] Blood pressure was recorded in real time.
(§2) The cell samples and tissue sample were collected and placed in ice rapidly. […] Protein concentration in cell lysates was measured using a Bio-Rad DC Protein Assay Kit […]. […]

ACE2 [1] = test: ACE2 protein expression in HUVECs (Western blot, immunofluorescence); format: cell-based, human; conditions: HUVECs, 25, 50, 100 μM, 24 h
From the text: Human umbilical vein endothelial cells (HUVECs) were isolated from umbilical cords as previously described ([Jaffe et al., 1973]). They were purchased from ATCC (cat# CRL-1444, Manassas, VA, United States) and cultured in endothelial cell medium (ECM, ScienCell, Carlsbad, CA, United States) supplemented with 5% FBS, 1% endothelial cell growth supplement, and 1% antibiotics (Sigma, St. Louis, MO, United States). Cells harvested between the third and tenth passages were used in the experiments. Cells were cultured until they were ∼80% confluent. […]
After treatment with different concentrations of BAC (Control, DMSO, 25, 50, and 100 μM, dissolved in 0.1% DMSO–DMEM) for 24 h, the cells were washed with PBS three times, fixed in 4% paraformaldehyde for 20 min, permeabilized with 0.3% Triton X-100 for 20 min, and then blocked with 5% BSA for 30 min at room temperature of 25°C. […] The samples were analyzed using a confocal laser scanning microscope (Zeiss LSM 510 META, Oberkochen, Germany).
as §2

p-eNOS^Ser1177 = test: p-eNOS Ser1177 in aorta of SHRs (Western blot); format: in vivo, rat; conditions: vessel of SHRs, oral 14 days
From the text: as §1, §2

ACE2 [2] = test: ACE2 expression in aorta of SHRs (Western blot, tissue immunofluorescence); format: in vivo, rat; conditions: oral 14 days
From the text: as §1, with “time. […]” for “time.”
as §2

HUVECs = test: CCK-8 cell viability (drug cytotoxicity) in HUVECs; format: cell-based, human; conditions: dose lower than 100 μM, 48 h
From the text: Human umbilical vein endothelial cells (HUVECs) were isolated from umbilical cords as previously described ([Jaffe et al., 1973]). They were purchased from ATCC (cat# CRL-1444, Manassas, VA, United States) and cultured in endothelial cell medium (ECM, ScienCell, Carlsbad, CA, United States) supplemented with 5% FBS, 1% endothelial cell growth supplement, and 1% antibiotics (Sigma, St. Louis, MO, United States). Cells harvested between the third and tenth passages were used in the experiments. Cells were cultured until they were ∼80% confluent. After pre-starving in a quiescing ECM supplemented with 1% FBS and 1% antibiotics for 24 h, the cells were treated using different concentrations of BAC (Control, DMSO, 25, 50, and 100 μM, dissolved in 0.1% DMSO–DMEM) with or without MG132, an inhibitor of proteasome, at 20 nM or 40 nM for 24 h. Then, cell samples were collected for Western blot analysis or immunofluorescence staining.
The potential of cells to maintain or recover viability after treatment with each agent was determined. Cell viability can be distinguished from the all-or-nothing states of life and death using a quantifiable index between 0 and 1 (or 0 and 100%). Cell viability was measured by a Cell Counting Kit-8 (CCK-8) Assay Kit (EnoGene, Nanjing, China). […] After 1 h of incubation, the absorbance was measured at 450 nm using a microplate reader (Thermo Fisher Scientific). […]

CCN1CC2(COC)C(O)CC(OC)C34C5CC6(O)C(OC)C(O)C(O)(C5C6OC(=O)c5ccccc5)C(C(OC)C23)C14 (centres unmarked) [BAC, Benzoylaconitine]
p-Akt (p-Akt): activated | protein expression of ACE2 (ACE2 [1]): does not affect | p-eNOS^Ser1177 (p-eNOS^Ser1177): activated | ACE2 expression in the aorta (ACE2 [2]): no effect | cell viability (toxicity on HUVECs) (HUVECs): no significant effect
